According to patent US6355799B1, “Substituted benzene compounds, process for their preparation, and herbicidal and defoliant compositions containing them” (ISK Americas Incorporated, priority 1997, dated 2002):

Assays:
Type in all cases: in vivo
[1] = test system: barnyardgrass (Echinochloa crus-galli, ECHCG); test: Pre-emerge test, greenhouse herbicide activity screening; details: pre-emerge, rated 14 days after application, 0 = no damage, 100 = complete death
Outline: (§1)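 Compounds in acetone were track-sprayed at 187 l/ha, 15–1000 g ai/ha, onto sandy loam pots. Pre-emerge seeds were sown one day before spraying, with surface watering afterwards. Post-emerge plants were at the 2–3 leaf stage and sprayed with 0.25% v/v non-ionic surfactant. Injury was rated 0–100 at 14 days.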

[2] = test system: green foxtail (Setaria viridis, SETVI); test: as above; details: pre-emerge, rated 14 days after application, 0 = no damage, 100 = complete death
Outline: as §1

[3] = test system: velvetleaf (Abutilon theophrasti, ABUTH); test: as above; details: pre-emerge, rated 14 days after application, 0 = no damage, 100 = complete death
Outline: as §1

[4] = test system: lambsquarters (Chenopodium album, CHEAL); test: as above; details: pre-emerge, rated 14 days after application, 0 = no damage, 100 = complete death
Outline: as §1

[5] = test system: sicklepod (Cassia obtusifolia, CASOB); test: as above; details: pre-emerge, rated 14 days after application, 0 = no damage, 100 = complete death
Outline: as §1

[6] = test system: large crabgrass (Digitaria sanguinalis, DIGSA); test: as above; details: pre-emerge, rated 14 days after application, 0 = no damage, 100 = complete death
Outline: as §1

[7] = test system: johnsongrass (Sorghum halepense, SORHA); test: as above; details: pre-emerge, rated 14 days after application, 0 = no damage, 100 = complete death
Outline: as §1

[8] = test system: ivyleaf morningglory (Ipomoea hederacea, IPOHE); test: as above; details: pre-emerge, rated 14 days after application, 0 = no damage, 100 = complete death
Outline: as §1

[9] = test system: redroot pigweed (Amaranthus retroflexus, AMARE); test: as above; details: pre-emerge, rated 14 days after application, 0 = no damage, 100 = complete death
Outline: as §1

[10] = test system: field corn (Zea mays L., var. Dekalb 535, CORN); test: Pre-emerge test, crop safety; details: pre-emerge, rated 14 days after application, 0 = no damage, 100 = complete death
Outline: (§2)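 Visual ratings on a 0-100 scale (0 no damage, 100 all plants dead) were taken at 14 days after treatment. Rates of 15-1000 g ai/ha in acetone, 187 l/ha, were sprayed onto soil one day after planting (pre-emerge) or onto 2-3 leaf plants with 0.25% v/v surfactant (post-emerge).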

[11] = test system: upland rice (Oryza sp., var. Tebonnet, RICE); test: Pre-emerge test, crop safety; details: pre-emerge, rated 14 days after application, 0 = no damage, 100 = complete death
Outline: as §2

[12] = test system: redroot pigweed (Amaranthus retroflexus, AMARE); test: Post-emerge test, greenhouse herbicide activity screening; details: phytotoxicity rating 0-100 (0 no damage, 100 complete death), 14 days after application
Outline: as §2

[13] = test system: barnyardgrass (Echinochloa crus-galli, ECHCG); test: as above; details: phytotoxicity rating 0-100 (0 no damage, 100 complete death), 14 days after application
Outline: as §2

[14] = test system: green foxtail (Setaria viridis, SETVI); test: as above; details: phytotoxicity rating 0-100 (0 no damage, 100 complete death), 14 days after application
Outline: as §2

[15] = test system: velvetleaf (Abutilon theophrasti, ABUTH); test: as above; details: phytotoxicity rating 0-100 (0 no damage, 100 complete death), 14 days after application
Outline: as §2

[16] = test system: lambsquarters (Chenopodium album, CHEAL); test: as above; details: phytotoxicity rating 0-100 (0 no damage, 100 complete death), 14 days after application
Outline: as §2

[17] = test system: large crabgrass (Digitaria sanguinalis, DIGSA); test: as above; details: phytotoxicity rating 0-100 (0 no damage, 100 complete death), 14 days after application
Outline: as §2

[18] = test system: johnsongrass (Sorghum halepense, SORHA); test: as above; details: phytotoxicity rating 0-100 (0 no damage, 100 complete death), 14 days after application
Outline: as §2

[19] = test system: ivyleaf morningglory (Ipomoea hederacea, IPOHE); test: as above; details: phytotoxicity rating 0-100 (0 no damage, 100 complete death), 14 days after application
Outline: as §2

[20] = test system: field corn (Zea mays L., var. Dekalb 535, CORN); test: Post-emerge test, crop safety; details: phytotoxicity rating 0-100 (0 no damage, 100 complete death), 14 days after application
Outline: as §1

[21] = test system: upland rice (Oryza sp., var. Tebonnet, RICE); test: Post-emerge test, crop safety; details: phytotoxicity rating 0-100 (0 no damage, 100 complete death), 14 days after application
Outline: as §1

Cn1c(C(F)(F)F)cc(=O)n(-c2c(F)cc(Cl)c(OCC#N)c2NC(=O)C(F)(F)F)c1=O [2-11]
Pre-emerge Herbicidal Activity ECHCG (phytotoxicity rating, scale 0-100) ([1]; 63 g ai/ha): 0
Pre-emerge Herbicidal Activity ECHCG (phytotoxicity rating, scale 0-100) ([1]; 250 g ai/ha): 40
Pre-emerge Herbicidal Activity SETVI (phytotoxicity rating, scale 0-100) ([2]; 63 g ai/ha): 0
Pre-emerge Herbicidal Activity SETVI (phytotoxicity rating, scale 0-100) ([2]; 250 g ai/ha): 100
Pre-emerge Herbicidal Activity ABUTH (phytotoxicity rating, scale 0-100) ([3]; 63 g ai/ha): 90
Pre-emerge Herbicidal Activity ABUTH (phytotoxicity rating, scale 0-100) ([3]; 250 g ai/ha): 100
Pre-emerge Herbicidal Activity CHEAL (phytotoxicity rating, scale 0-100) ([4]; 63 g ai/ha): 100
Pre-emerge Herbicidal Activity CHEAL (phytotoxicity rating, scale 0-100) ([4]; 250 g ai/ha): 100
Pre-emerge Herbicidal Activity CASOB (phytotoxicity rating, scale 0-100) ([5]; 63 g ai/ha): 0
Pre-emerge Herbicidal Activity CASOB (phytotoxicity rating, scale 0-100) ([5]; 250 g ai/ha): 60
Pre-emerge Herbicidal Activity DIGSA (phytotoxicity rating, scale 0-100) ([6]; 63 g ai/ha): 0
Pre-emerge Herbicidal Activity DIGSA (phytotoxicity rating, scale 0-100) ([6]; 250 g ai/ha): 60
Pre-emerge Herbicidal Activity SORHA (phytotoxicity rating, scale 0-100) ([7]; 63 g ai/ha): 0
Pre-emerge Herbicidal Activity SORHA (phytotoxicity rating, scale 0-100) ([7]; 250 g ai/ha): 50
Pre-emerge Herbicidal Activity IPOHE (phytotoxicity rating, scale 0-100) ([8]; 63 g ai/ha): 70
Pre-emerge Herbicidal Activity IPOHE (phytotoxicity rating, scale 0-100) ([8]; 250 g ai/ha): 100
Pre-emerge Herbicidal Activity AMARE (phytotoxicity rating, scale 0-100) ([9]; 63 g ai/ha): 30
Pre-emerge Herbicidal Activity AMARE (phytotoxicity rating, scale 0-100) ([9]; 250 g ai/ha): 100
Pre-emerge crop damage CORN (phytotoxicity rating, scale 0-100) ([10]; 63 g ai/ha): 0
Pre-emerge crop damage CORN (phytotoxicity rating, scale 0-100) ([10]; 250 g ai/ha): 10
Pre-emerge crop damage RICE (phytotoxicity rating, scale 0-100) ([11]; 63 g ai/ha): 10
Pre-emerge crop damage RICE (phytotoxicity rating, scale 0-100) ([11]; 250 g ai/ha): 50
Post-emerge Herbicidal Activity AMARE ([12]; 63 g ai/ha): 0
Post-emerge Herbicidal Activity AMARE ([12]; 250 g ai/ha): 30
Post-emerge Herbicidal Activity ECHCG ([13]; 63 g ai/ha): 0
Post-emerge Herbicidal Activity ECHCG ([13]; 250 g ai/ha): 0
Post-emerge Herbicidal Activity SETVI ([14]; 63 g ai/ha): 0
Post-emerge Herbicidal Activity SETVI ([14]; 250 g ai/ha): 20
Post-emerge Herbicidal Activity ABUTH ([15]; 63 g ai/ha): 80
Post-emerge Herbicidal Activity ABUTH ([15]; 250 g ai/ha): 100
Post-emerge Herbicidal Activity CHEAL ([16]; 63 g ai/ha): 40
Post-emerge Herbicidal Activity CHEAL ([16]; 250 g ai/ha): 65
Post-emerge Herbicidal Activity DIGSA ([17]; 63 g ai/ha): 0
Post-emerge Herbicidal Activity DIGSA ([17]; 250 g ai/ha): 0
Post-emerge Herbicidal Activity SORHA ([18]; 63 g ai/ha): 0
Post-emerge Herbicidal Activity SORHA ([18]; 250 g ai/ha): 0
Post-emerge Herbicidal Activity IPOHE ([19]; 63 g ai/ha): 50
Post-emerge Herbicidal Activity IPOHE ([19]; 250 g ai/ha): 60
Post-emerge Herbicidal Activity CORN (crop damage) ([20]; 63 g ai/ha): 5
Post-emerge Herbicidal Activity CORN (crop damage) ([20]; 250 g ai/ha): 5
Post-emerge Herbicidal Activity RICE (crop damage) ([21]; 63 g ai/ha): 0
Post-emerge Herbicidal Activity RICE (crop damage) ([21]; 250 g ai/ha): 0
